Laboratory results from US12686846B2, “Plant sweet and yeast MSF transporter capable of transporting different sugars simultaneously” (THE BOARD OF TRUSTEES OF THE UNIVERSITY OF ILLINOIS, priority 2020, dated 2026).
“Also recorded” adds a separate entry of the source.

Experiments:
Assay type in all cases: cell-based
[1] = target: T1, Lipomyces starkeyi LST1_205437 transporter, wild type, SEQ ID NO: 4 (Lipomyces starkeyi, UniProt A0A1E3QE37); assay: Inhibition of xylose uptake by glucose, SR8D8 expressing LST1_205437; conditions: 25 mM or 100 mM glucose; in words
T1 construct: whole-cell 14C sugar uptake
T1 sequence (A0A1E3QE37 1-603): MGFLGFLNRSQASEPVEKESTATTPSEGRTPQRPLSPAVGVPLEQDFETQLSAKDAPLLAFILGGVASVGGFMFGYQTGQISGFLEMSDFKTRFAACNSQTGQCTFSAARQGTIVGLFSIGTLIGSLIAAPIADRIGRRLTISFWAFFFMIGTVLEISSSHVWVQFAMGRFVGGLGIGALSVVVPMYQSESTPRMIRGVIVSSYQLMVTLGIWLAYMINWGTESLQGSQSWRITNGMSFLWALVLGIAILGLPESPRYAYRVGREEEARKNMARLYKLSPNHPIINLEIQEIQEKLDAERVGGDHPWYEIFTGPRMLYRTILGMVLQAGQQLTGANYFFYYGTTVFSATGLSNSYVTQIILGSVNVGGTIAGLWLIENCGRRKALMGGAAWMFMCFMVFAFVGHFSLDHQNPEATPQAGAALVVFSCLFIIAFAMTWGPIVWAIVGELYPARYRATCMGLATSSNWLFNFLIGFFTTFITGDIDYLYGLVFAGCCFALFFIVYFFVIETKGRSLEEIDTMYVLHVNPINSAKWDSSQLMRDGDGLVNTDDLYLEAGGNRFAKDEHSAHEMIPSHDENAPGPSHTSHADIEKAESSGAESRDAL
Procedure: (§1) Symbols: glucose (square), xylose (triangle up), DCW (circle), ethanol (triangle down), glycerol (diamond). […] Global curve fitting for Michaelis-Menten kinetics with competitive inhibition was applied to data of three independent measurements at each concentration.
(§2) SR8D8 containing the respective plasmid was grown on selective YPE medium to an OD600 of 1-1.5, harvested by centrifugation, and washed twice in ice-cold uptake buffer (100 mM potassium phosphate, pH 6.5). C14 labeled sugar uptake assay was done according to Boles and Oreb. Radioactivity was analyzed in a Beckman-Coulter LS6500 multi-purpose liquid scintillation counter (Beckman-Coulter, CA, USA).
(§3) Sugar solutions contained 0.135-0.608 μCi of D-[U-^14C]-glucose (290-300 mCi/mmol) or D-[1-^14C]-xylose (55 mCi/mmol) (PerkinElmer, MA, USA). Calculation of Km (Michaelis constant), Vmax (maximal initial uptake velocity), and K (inhibitor constant for competitive inhibition) was done by nonlinear regression analysis and global curve fitting in Prism 7 (GraphPad Software) with values of three independent measurements.

[2] = target: T2, Arabidopsis thaliana AtSWEET7 transporter, wild type (Table 2: SEQ ID NO: 3; FIG. 12: SEQ ID NO:2) (Arabidopsis thaliana, UniProt Q8LBF7); assay: C14 labeled sugar uptake assay (zero-trans influx), SR8D8 expressing AtSWEET7; conditions: initial glucose uptake (5 s), 30° C., pH 6.5; cell wet weight; ± SEM
T2 construct: expressed in transfected cells; host or cells: S. cerevisiae SR8D8 (SR8 with HXT1-7 and GAL2 deleted), plasmid p42K-GPD1p-CYC1t
T2 sequence (Q8LBF7 1-258): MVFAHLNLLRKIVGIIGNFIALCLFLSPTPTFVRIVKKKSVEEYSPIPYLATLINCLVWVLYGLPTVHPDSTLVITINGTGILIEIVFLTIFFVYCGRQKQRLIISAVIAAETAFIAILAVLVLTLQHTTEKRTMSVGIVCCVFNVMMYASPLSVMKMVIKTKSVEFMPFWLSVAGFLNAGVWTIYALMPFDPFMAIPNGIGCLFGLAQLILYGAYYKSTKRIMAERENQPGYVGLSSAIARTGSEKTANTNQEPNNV
Procedure: FIG. 7A illustrates sugar uptake kinetics by SR8D8. FIG. 7B illustrates sugar uptake kinetics by SR8D8 expressing AtSWEET1. FIG. 7C illustrates sugar uptake kinetics by SR8D8 expressing ScGal2. FIG. 7D illustrates sugar uptake kinetics by SR8D8 expressing AtSWEET7. FIG. 7E illustrates sugar uptake kinetics by SR8D8 expressing LST1_205437. Initial xylose uptake (20 s) was measured at 30° C. over a concentration range of 1 to 500 mM xylose. FIG. 7F illustrates sugar uptake kinetics by SR8D8. FIG. 7G illustrates sugar uptake kinetics by SR8D8 expressing AtSWEET1. FIG. 7H illustrates sugar uptake kinetics by SR8D8 expressing ScGal2. FIG. 7I illustrates sugar uptake kinetics by SR8D8 expressing AtSWEET7. FIG. 7J illustrates sugar uptake kinetics by SR8D8 expressing LST1_205437. Initial glucose uptake (5 s) was measured at 30° C. over a concentration range of 0.2 to 100 mM glucose. […]
A xylose fermenting S. cerevisiae yeast (SR8) with HXT1-7Δ, GAL2Δ deletions was used for transporter screening and characterization (SR8D8). […] Biomass was calculated from the OD600 measured using a Biomate 5 UV-visible spectrophotometer (Fisher, NY, USA). All growth rates were measured using a Bioscreen C plate reader system (Growth Curves USA, Piscataway, NJ, USA). […]
Uptake was measured at sugar concentrations 0.2, 1, 5, 25, and 100 mM for glucose and 1, 5, 25, 66, 100, 200, and 500 mM for xylose. […]

[3] = target: T2, Arabidopsis thaliana AtSWEET7 transporter, wild type (Table 2: SEQ ID NO: 3; FIG. 12: SEQ ID NO:2); assay: Inhibition of xylose uptake by glucose, SR8D8 expressing AtSWEET7; conditions: 25 mM and 100 mM glucose; in words
Procedure: as §1, §2, §3

In the case of `OC[C@H]1OC(O)[C@H](O)[C@@H](O)[C@@H]1O` (stereo partly drawn) [Glucose], the “inhibition of xylose transport by glucose” value [1] was “less inhibited by glucose than those by ScGal2; also recorded: glucose concentration dependent inhibition of xylose transport”, the “Vmax (glucose)” value [2] was 110.3 ± 7.2 nmol/min/mg and the “inhibition of xylose transport by glucose” value [3] was “no inhibition of xylose transport by glucose; also recorded: do not have any xylose transport inhibition”.
